Results published in BindingDB's records for patent US8563553 (Novartis, 2013).

Target: Serine/threonine-protein kinase B-raf [V600E] (Homo sapiens, UniProt P15056, V600E)
Assay: Raf/Mek Amplified Luminescence Proximity Homogeneous Assay
Conditions: pH 7.5
Text: Raf/Mek amplified luminescence proximity homogeneous assay.

Serine/threonine-protein kinase B-raf [V600E], sequence (P15056 2-766 V600E limits assumed): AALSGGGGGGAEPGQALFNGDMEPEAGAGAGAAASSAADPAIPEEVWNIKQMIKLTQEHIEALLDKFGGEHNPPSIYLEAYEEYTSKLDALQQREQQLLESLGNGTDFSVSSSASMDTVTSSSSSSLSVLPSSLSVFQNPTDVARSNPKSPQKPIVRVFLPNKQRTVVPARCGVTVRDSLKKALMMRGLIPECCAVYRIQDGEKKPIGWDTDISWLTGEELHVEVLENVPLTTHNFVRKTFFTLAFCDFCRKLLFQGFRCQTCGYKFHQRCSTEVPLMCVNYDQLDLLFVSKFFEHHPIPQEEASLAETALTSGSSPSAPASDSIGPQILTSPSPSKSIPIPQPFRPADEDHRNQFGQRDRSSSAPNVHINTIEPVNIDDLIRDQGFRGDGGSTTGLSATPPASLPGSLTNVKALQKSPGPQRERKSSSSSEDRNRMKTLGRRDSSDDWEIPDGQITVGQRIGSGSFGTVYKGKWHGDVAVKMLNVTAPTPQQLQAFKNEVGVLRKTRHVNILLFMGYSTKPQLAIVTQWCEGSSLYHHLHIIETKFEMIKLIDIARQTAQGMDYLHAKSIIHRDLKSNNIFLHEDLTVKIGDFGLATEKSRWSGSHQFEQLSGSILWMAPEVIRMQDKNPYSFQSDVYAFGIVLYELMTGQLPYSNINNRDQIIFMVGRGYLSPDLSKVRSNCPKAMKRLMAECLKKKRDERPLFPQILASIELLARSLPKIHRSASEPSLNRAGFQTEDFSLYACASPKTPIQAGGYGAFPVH

COC(=O)N[C@@H](C)CNc1nccc(-c2nc(C(C)(C)C)[nH]c2-c2cc(Cl)cc(NS(=O)(=O)C(F)(F)F)c2)n1 [US8563553, 52] was tested, and the IC50 was 235 nM.
